Our source for the IC50 values is patent publication US10568876B2, “Tetrahydroisoquinoline derivatives useful as inhibitors of diacylglyceride O-acyltransferase 2” (Merck Sharp & Dohme Corp., priority 2014, dated 2020).

As a reminder, the IC50 is the concentration that gives 50% inhibition.

Chain of hDGAT2 (Q96PD7 whole entry): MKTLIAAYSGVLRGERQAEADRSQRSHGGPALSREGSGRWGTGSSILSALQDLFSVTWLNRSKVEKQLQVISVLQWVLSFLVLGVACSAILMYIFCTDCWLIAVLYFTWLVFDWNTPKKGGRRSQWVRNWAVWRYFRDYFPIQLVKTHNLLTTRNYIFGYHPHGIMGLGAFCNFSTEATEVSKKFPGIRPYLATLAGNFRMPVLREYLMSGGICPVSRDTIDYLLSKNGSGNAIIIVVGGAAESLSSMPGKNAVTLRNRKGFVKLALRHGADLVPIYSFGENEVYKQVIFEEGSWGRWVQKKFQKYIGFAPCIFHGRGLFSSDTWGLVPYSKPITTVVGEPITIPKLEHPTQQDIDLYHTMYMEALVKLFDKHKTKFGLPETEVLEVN

The test concerns the target hDGAT2 (Homo sapiens (Human), UniProt Q96PD7). As to the kind of experiment: DGAT2 Enzymatic Activity Assay. The test is classed as biochemical. To be noted: hDGAT2 Sf-9 membrane prep; 25 μM diolein, 10 μM oleoyl-CoA; triolein product by LC/MS/MS; read-out: IC50 values for inhibition of DGAT2. The method in brief: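 Membranes from Sf-9 cells expressing untagged hDGAT2 (10 ng/μL) incubated at room temperature with 25 μM diolein and 10 μM oleoyl-CoA in 100 mM Tris pH 7.0, 20 mM MgCl2, 5% ethanol. Triolein product quantified by LC/MS/MS against spiked internal standard; IC50 from 4-parameter sigmoidal fit.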
Regarding `COC(=O)c1cccc(-c2ccc(CNC(=O)C3CC3c3ccccc3)c3c2CCN(Cc2ccc(F)cc2)C3)c1` (stereo not drawn) [Example 98, methyl 3-(2-(4-fluorobenzyl)-8-((2-phenylcyclopropanecarboxamido)methyl)-1,2,3,4-tetrahydroisoquinolin-5-yl)benzoate], the IC50 was determined as 2680 nM.

On to `CCC(C)CNC(=O)N1CCc2c(-c3cccc(OC)c3)ccc(CNC(=O)[C@@H]3C[C@H]3c3ccccc3)c2C1` (relative stereo) [Example 75, 5-(3-methoxyphenyl)-N-(2-methylbutyl)-8-(((trans)-2-phenylcyclopropanecarboxamido)methyl)-3,4-dihydroisoquinoline-2(1H)-carboxamide], for which the IC50 was 232 nM.

`CC(C)(C)NC(=O)N1CCc2c(-c3ccc4c(c3)CNC4=O)ccc(CNC(=O)[C@@H]3C[C@H]3c3ccccc3)c2C1` (relative stereo) [Example 45, N-(tert-butyl)-5-(1-oxoisoindolin-5-yl)-8-(((trans)-2-phenylcyclopropanecarboxamido)methyl)-3,4-dihydroisoquinoline-2(1H)-carboxamide]: the IC50 is 2650 nM.

As to `COC(=O)c1cccc(-c2ccc(CNC(=O)C3CC3c3ccccc3)c3c2CCN(Cc2ncn(C)c2C)C3)c1` (stereo not drawn) [Example 95, methyl 3-(2-((1,5-dimethyl-1H-imidazol-4-yl)methyl)-8-((2-phenylcyclopropanecarboxamido)methyl)-1,2,3,4-tetrahydroisoquinolin-5-yl)benzoate], the IC50 worked out at 3780 nM.

Turning to `COC(=O)c1cccc(-c2ccc(CNC(=O)C3CC3c3ccccc3)c3c2CCN(C(=O)CCC(F)(F)F)C3)c1` (stereo not drawn) [Example 127, methyl 3-(8-((2-phenylcyclopropanecarboxamido)methyl)-2-(4,4,4-trifluorobutanoyl)-1,2,3,4-tetrahydroisoquinolin-5-yl)benzoate], the concentration for half-maximal inhibition (IC50) was 1220 nM.

For the molecule `Cc1noc(C2CC2C(=O)NCc2ccc(-c3cccc(OC(F)(F)F)c3)c3c2CN(C(=O)NC2CCS(=O)(=O)C2)CC3)n1` (stereo not drawn) [Example 78, N-(1,1-dioxidotetrahydrothiophen-3-yl)-8-((2-(3-methyl-1,2,4-oxadiazol-5-yl)cyclopropanecarboxamido)methyl)-5-(3-(trifluoromethoxy)phenyl)-3,4-dihydroisoquinoline-2(1H)-carboxamide], the IC50 was found to be 892 nM.

`COC(=O)c1cccc(-c2ccc(CNC(=O)C3CC3c3ccccc3)c3c2CCN(C(=O)c2ccccc2)C3)c1` (stereo not drawn) [Example 138, methyl 3-(2-benzoyl-8-((2-phenylcyclopropanecarboxamido)methyl)-1,2,3,4-tetrahydroisoquinolin-5-yl)benzoate]: the 50% inhibitory concentration (IC50) was 176 nM.

For `CCN(CC)C(=O)CN1CCc2c(-c3cccc(OC(F)(F)F)c3)ccc(CNC(=O)C3CC3c3nc(C)no3)c2C1` (stereo not drawn) [Example 81, N-((2-(2-(diethylamino)-2-oxoethyl)-5-(3-(trifluoromethoxy)phenyl)-1,2,3,4-tetrahydroisoquinolin-8-yl)methyl)-2-(3-methyl-1,2,4-oxadiazol-5-yl)cyclopropanecarboxamide], the IC50 came out at 658 nM.

As for `CC(C)(C)NC(=O)N1CCc2c(-c3cccc(-n4cncn4)c3)ccc(CNC(=O)[C@@H]3C[C@H]3c3ccccc3)c2C1` (relative stereo) [Example 50, 5-(3-(1H-1,2,4-triazol-1-yl)phenyl)-N-(tert-butyl)-8-(((trans)-2-phenylcyclopropanecarboxamido)methyl)-3,4-dihydroisoquinoline-2(1H)-carboxamide], the concentration for half-maximal inhibition (IC50) is 9.3 nM.

`CCOC(=O)c1cncc(-c2ccc(CNC(=O)[C@@H]3C[C@H]3c3ccccc3)c3c2CCN(C(=O)NC(C)(C)C)C3)c1` (relative stereo) [Example 46, ethyl 5-(2-(tert-butylcarbamoyl)-8-(((trans)-2-phenylcyclopropanecarboxamido)methyl)-1,2,3,4-tetrahydroisoquinolin-5-yl)nicotinate]: the IC50 was 0.66 nM.

With `COc1cccc(-c2ccc(CNC(=O)[C@@H]3C[C@H]3c3ccccc3)c3c2CCN(C(=O)Nc2cccnc2)C3)c1` (relative stereo) [Example 24, 5-(3-methoxyphenyl)-8-(((trans)-2-phenylcyclopropanecarboxamido)methyl)-N-(pyridin-3-yl)-3,4-dihydroisoquinoline-2(1H)-carboxamide], the IC50 stood at 238 nM.

Take `CC(C)(C)NC(=O)N1CCc2c(-c3ccnc4[nH]ccc34)ccc(CNC(=O)[C@@H]3C[C@H]3c3ccccc3)c2C1` (relative stereo) [Example 32, N-(tert-butyl)-8-(((trans)-2-phenylcyclopropanecarboxamido)methyl)-5-(1H-pyrrolo[2,3-b]pyridin-4-yl)-3,4-dihydroisoquinoline-2(1H)-carboxamide]: the IC50 is 1460 nM.

Regarding `COc1cccc(-c2ccc(CNC(=O)C3CC3c3ccccc3)c3c2CCN(CC(F)(F)F)C3)c1` (stereo not drawn) [Example 93, N-((5-(3-methoxyphenyl)-2-(2,2,2-trifluoroethyl)-1,2,3,4-tetrahydroisoquinolin-8-yl)methyl)-2-phenylcyclopropanecarboxamide], the IC50 was found to be 1220 nM.

Consider `COc1cccc(-c2ccc(CNC(=O)[C@@H]3C[C@H]3c3ccccc3)c3c2CCN(C(=O)Nc2cc(C)no2)C3)c1` (relative stereo) [Example 20, 5-(3-methoxyphenyl)-N-(3-methylisoxazol-5-yl)-8-(((trans)-2-phenylcyclopropanecarboxamido)methyl)-3,4-dihydroisoquinoline-2(1H)-carboxamide], for which the half-maximal inhibitory concentration (IC50) was found to be 1640 nM.

As to `COC(=O)c1cccc(-c2ccc(CNC(=O)C3CC3c3ccccc3)c3c2CCN(C(=O)C(C)C)C3)c1` (stereo not drawn) [Example 130, methyl 3-(2-isobutyryl-8-((2-phenylcyclopropanecarboxamido)methyl)-1,2,3,4-tetrahydroisoquinolin-5-yl)benzoate], the IC50 was 281 nM.

Consider `CC(C)(C)NC(=O)N1CCc2c(-c3cccc(-c4ncon4)c3)ccc(CNC(=O)C3C[C@H]3c3ccccc3)c2C1` (stereo partly drawn) [Example 51, 5-(3-(1,2,4-oxadiazol-3-yl)phenyl)-N-(tert-butyI)-8-(((trans)-2-phenylcyclopropanecarboxamido)methyl)-3,4-dihydroisoquinoline-2(1H)-carboxamide], for which the IC50 is 5.78 nM.

Take `CC(C)(C)NC(=O)N1CCc2c(-c3cncc(C(C)(C)O)c3)ccc(CNC(=O)[C@@H]3C[C@H]3c3ccccc3)c2C1` (relative stereo) [Example 10, N-(tert-butyl)-5-(5-(2-hydroxypropan-2-yl)pyridin-3-yl)-8-(((trans)-2-phenylcyclopropanecarboxamido)methyl)-3,4-dihydroisoquinoline-2(1H)-carboxamide]: the IC50 came to 166 nM.

Consider `Cc1noc(C2CC2C(=O)NCc2ccc(-c3cccc(OC(F)(F)F)c3)c3c2CN(C(=O)NC2CCS(=O)(=O)C2)CC3)n1` (stereo not drawn) [Example 76, N-(1,1-dioxidotetrahydrothiophen-3-yl)-8-((2-(3-methyl-1,2,4-oxadiazol-5-yl)cyclopropanecarboxamido)methyl)-5-(3-(trifluoromethoxy)phenyl)-3,4-dihydroisoquinoline-2(1H)-carboxamide], for which the IC50 was found to be 238 nM.

For the molecule `COC(=O)c1cccc(-c2ccc(CNC(=O)C3CC3c3nc(C)no3)c3c2CCN(C(=O)NC(C)(C)C)C3)c1` (stereo not drawn) [Example 21, methyl 3-(2-(tert-butylcarbamoyl)-8-((2-(3-methyl-1,2,4-oxadiazol-5-yl)cyclopropanecarboxamido)methyl)-1,2,3,4-tetrahydroisoquinolin-5-yl)benzoate], the IC50 turned out to be 15.5 nM.

Regarding `Cc1cncc(-c2ccc(CNC(=O)[C@@H]3C[C@H]3c3ccccc3)c3c2CCN(C(=O)NC(C)(C)C)C3)c1` (relative stereo) [Example 8, N-(tert-butyl)-5-(5-methylpyridin-3-yl)-8-(((trans)-2-phenylcyclopropanecarboxamido)methyl)-3,4-dihydroisoquinoline-2(1H)-carboxamide], the IC50 was 82.3 nM.

Take `CCOC(=O)CCCNC(=O)N1CCc2c(-c3cccc(OC)c3)ccc(CNC(=O)[C@@H]3C[C@H]3c3ccccc3)c2C1` (relative stereo) [Example 59, ethyl 4-(5-(3-methoxyphenyl)-8-(((trans)-2-phenylcyclopropanecarboxamido)methyl)-1,2,3,4-tetrahydroisoquinoline-2-carboxamido)butanoate]: the 50% inhibitory concentration (IC50) was 227 nM.

With `Cc1noc([C@@H]2C[C@H]2C(=O)NCc2ccc(-c3cccc(OC(F)(F)F)c3)c3c2CN(Cc2ccncn2)CC3)n1` (relative stereo) [Example 105, (trans)-2-(3-methyl-1,2,4-oxadiazol-5-yl)-N-((2-(pyrimidin-4-ylmethyl)-5-(3-(trifluoromethoxy)phenyl)-1,2,3,4-tetrahydroisoquinolin-8-yl)methyl)cyclopropanecarboxamide], the IC50 was 2610 nM.

Turning to `Cc1noc([C@@H]2C[C@H]2C(=O)NCc2ccc(-c3cccc(OC(F)(F)F)c3)c3c2CN(Cc2scnc2C)CC3)n1` (relative stereo) [Example 106, (trans)-2-(3-methyl-1,2,4-oxadiazol-5-yl)-N-((2-((4-methylthiazol-5-yl)methyl)-5-(3-(trifluoromethoxy)phenyl)-1,2,3,4-tetrahydroisoquinolin-8-yl)methyl)cyclopropanecarboxamide], the IC50 was determined as 1840 nM.

For `COC(=O)c1cccc(-c2ccc(CNC(=O)C3CC3c3ccccc3)c3c2CCN(C(=O)CC(F)(F)F)C3)c1` (stereo not drawn) [Example 129, methyl 3-(8-((2-phenylcyclopropanecarboxamido)methyl)-2-(3,3,3-trifluoropropanoyl)-1,2,3,4-tetrahydroisoquinolin-5-yl)benzoate], the half-maximal inhibitory concentration (IC50) was 1820 nM.
